Experimental data as given in patent US10925867B2, “Immunotherapeutic dosing regimens comprising pomalidomide and an anti-CS1 antibody for treating cancer” (Bristol-Myers Squibb Company, priority 2015, dated 2021).
Like-named read-outs stand apart in the source and are kept apart here.

Experiments:
[1] = system: OPM2 xenograft; assay: OPM2 xenograft studies taken together (summary and conclusion); format: in vivo, mice; details: elotuzumab 0.5 mg/kg, pomalidomide 5 mg/kg, dexamethasone 5 mg/kg
Description: The present invention is based on data from preclinical studies conducted in female SCID mice (6-8 weeks old) that were implanted SC (subcutaneous implantation) with the multiple myeloma cell line OPM-2 which were treated with Elotuzumab IP (intraperitoneal administration) alone, treated with pomalidomide alone, treated with dexamethasone alone, or treated in combination with each other. […] All treatments were well tolerated, with no significant changes in body weights or overt signs of clinical toxicity.
Dosing regimen for dexamethasone was QD×7.

[2] = system: relapsed and refractory MM; details: cited from earlier work
[3] = system: OPM2 xenograft; details: for Median Days to Target Size / LCK / CR (complete tumor regressions) / PR (partial tumor regressions) / TGI: Study #2; for Median Days to Target Size: ELO 0.5 mg/kg IP 2QW from d12, POM 5 mg/kg PO QD × 5 d12, 19, DEX 5 mg/kg IP QD × 7 from d12, target size 1 gm; for LCK / CR (complete tumor regressions) / PR (partial tumor regressions) / TGI: ELO 0.5, POM 5, DEX 5 mg/kg; for CR (complete tumor regressions) / PR (partial tumor regressions): mice of 8; for TGI: versus untreated mice
Description: FIGS. 4A-B. Study #2 (OPM2-16), Antitumor Activity, Elotuzumab Efficacy in Combination with Pomalidomide and Dexamethasone in OPM2 Multiple Myeloma Xenograft. Mice with established OPM2 xenograft tumors were randomized into 2 groups with 8 mice per group and were administered one of the following sets of regimens: (A) Control group was left untreated (filled circles), elotuzumab (0.5 mg/kg, twice weekly IP for 6 doses starting d12, open circles), dexamethasone (5 mg/kg, daily IP for 7 doses starting on d12, open triangles), elotuzumab (0.5 mg/kg, twice weekly IP for 8 doses starting d12) plus dexamethasone combination (filled triangles), pomalidomide (5 mg/kg, daily for 5 days orally starting on d12 and then again for 5 days on d19) plus dexamethasone combination (dashes); or (B) Control group was left untreated (filled circles), elotuzumab (0.5 mg/kg, twice weekly IP for 6 doses starting d12, open circles), pomalidomide (5 mg/kg, daily for 5 days orally starting on d12 and then again for 5 days on d19, open squares), elotuzumab (0.5 mg/kg, twice weekly IP for 8 doses starting d12) plus pomalidomide combination (filled squares), elotuzumab (0.5 mg/kg, twice weekly IP for 8 doses starting d12) plus pomalidomide plus dexamethasone combination (x's). The data are presented as means+/−standard deviation.
(§1) FIGS. 5A-H. Study #2 (OPM2-16), Anti Tumor Activity of Elotuzumab, Pomalidomide, and Dexamethasone as Single Agent and Combination Treatment in OPM2 Multiple Myeloma Xenograft tumor model. Mice with established OPM2 xenograft tumors were randomized into groups with 8 mice per group and were administered one of the following regimens: (A): untreated (control); (B): elotuzumab; (C): pomalidomide; (D): dexamethasone; (E): elotuzumab plus pomalidomide; (F): elotuzumab plus dexamethasone; (G): pomalidomide plus dexamethasone; or (H): elotuzumab plus pomalidomide plus dexamethasone. Data represent tumor weight measured in individual animals. Dosing route and regimen are described in FIG. 4 and Example 1.
(§2) Animals: All mice were obtained from Taconic Biosciences (Germantown, N.Y.), and maintained in ammonia-free environment in a defined and pathogen-free colony. All animal procedures were approved by the Bristol-Myers Squibb (BMS) Institutional Animal Care and Use Committee. The animal care and use program at BMS has been fully accredited by the Association for Assessment and Accreditation of Laboratory Animal Care International (AAALAC).
(§3) Animal Models: The human tumor xenograft OPM2 was grown in IcrTac scid mice (ICRPrkdcscid). Treated animals were checked daily for treatment related toxicity/mortality. Each group of animals was weighed before the initiation of treatment (Wt1) and then weighed again following the last treatment dose (Wt2). The difference in body weight (Wt2-Wt1) provides a measure of treatment-related toxicity. Additional weights were recorded at each measurement date to monitor toxicity.
(§4) Tumor response was determined by measurement of tumors with a caliper twice a week, until the tumors reached a predetermined “target” size of 1 gm. Tumor weights (mg) were estimated from the formula: Tumor weight=(length×width2)/2.
(§5) Tumor response end-point was expressed in terms of tumor cell kill and tumor growth inhibition. Tumor growth delay was defined as the difference in time (days) required for the treated tumors (T) to reach a predetermined target size compared to those in the control group (C). For this purpose tumor weight of a group was expressed as […] tumor weight (MTW).
(§6) Tumor cell kill was expressed in terms of log cell kill (LCK), represented by the equation LCK=[…] where tumor volume doubling time (TVDT) was first calculated with the formula: TVDT=Median time (days) for control tumor weight to reach target size−Median time (days) for control tumor weight to reach half the target size.

[4] = system: OPM2 xenograft; details: for Median Days to Target Size / LCK / CR (complete tumor regressions) / PR (partial tumor regressions) / TGI: Study #1; for Median Days to Target Size: ELO 0.5 mg/kg IP 2QW from d16, POM 5 mg/kg PO QD × 5 d16, 23, DEX 5 mg/kg IP QD × 7 from d16, target size 1 gm; for LCK / CR (complete tumor regressions) / PR (partial tumor regressions) / TGI: ELO 0.5, POM 5, DEX 5 mg/kg; for CR (complete tumor regressions) / PR (partial tumor regressions): mice of 8; for TGI: versus untreated mice; for Max % Weight Loss: mouse, in vivo
Description: Mice with established OPM2 xenograft tumors were randomized into 2 groups with 8 mice per group and were administered one of the following sets of regimens: (A) Control group was left untreated (filled circles), elotuzumab (0.5 mg/kg, twice weekly IP for 7 doses starting d16, open circles), dexamethasone (5 mg/kg, daily IP for 7 doses starting on d16, open triangles), elotuzumab plus dexamethasone combination (filled triangles), pomalidomide (5 mg/kg, daily for 5 days orally starting on d16 and then again for 5 days on d23) plus dexamethasone combination (dashes); or (B) Control group was left untreated (filled circles), elotuzumab (0.5 mg/kg, twice weekly IP for 7 doses starting d16, open circles), pomalidomide (5 mg/kg, daily for 5 days orally starting on d16 and then again for 5 days on d23, open squares), elotuzumab (0.5 mg/kg, twice weekly IP for 10 doses starting d16) plus pomalidomide combination (filled squares), elotuzumab (10 doses) plus pomalidomide plus dexamethasone combination (x's). The data are presented as means+/−standard deviation.
as §1, with “Mice” for “FIGS. 5A-H. Study #2 (OPM2-16), Anti Tumor Activity of Elotuzumab, Pomalidomide, and Dexamethasone as Single Agent and Combination Treatment in OPM2 Multiple Myeloma Xenograft tumor model. Mice”, “2” for “4”
as §2, §3, §4, §5, §6

[5] = system: relapsed or refractory multiple myeloma; details: with lenalidomide and low-dose dexamethasone; 10 mg/kg dose; cited from earlier work
[6] = system: NK cells; details: independent of the Fc portion of the antibody; cited from earlier work
[7] = 38 subjects, including 22 with dexamethasone added

| Compound | efficacy / effect on tumor growth (in words) [1] | Median Days to Target Size [3] [days] | LCK [3] | CR (complete tumor regressions) [3] | PR (partial tumor regressions) [3] | TGI [3] [%] | Median Days to Target Size [4] [days] | LCK [4] | CR (complete tumor regressions) [4] | PR (partial tumor regressions) [4] | TGI [4] [%] | Max % Weight Loss [4] [%] | other results |
| --- | --- | --- | --- | --- | --- | --- | --- | --- | --- | --- | --- | --- | --- |
| Nc1cccc2c1C(=O)N(C1CCC(=O)NC1=O)C2=O (racemic) [Pomalidomide, (RS)-4-amino-2-(2,6-dioxo-piperidin-3-yl)-isoindole-1,3-dione] | inhibited tumor growth | 22.5 | 0.33 | 0/8 | 0/8 | 41.4 | 29.8 | 0.26 | 0/8 | 0/8 | 52 | −1.1 | number of DLTs (Grade 4 neutropenia) ([2]; 5 mg daily Days 1-21 of 28-day cycle): 4; treatment-emergent Grade 3/4 anemia ([2]; 38 subjects, 2-5 mg): 21%; treatment-emergent Grade 3/4 fatigue ([2]; 38 subjects, 2-5 mg): 16%; treatment-emergent Grade 3/4 neutropenia ([2]; 38 subjects, 2-5 mg): 53%; treatment-emergent Grade 3/4 thrombocytopenia ([2]; 38 subjects, 2-5 mg): 18%; subjects achieving CR [2, 7]: 3%; subjects achieving ≥MR or better [2, 7]: 42%; subjects achieving ≥PR [2, 7]: 21%; MTD ([2]; Days 1-21 of 28-day cycle): 4 mg/day; Max % Weight Loss ([3]; mouse, in vivo): −1.1% |
| Elotuzumab: humanized monoclonal IgG1 antibody directed against CS-1; VL SEQ ID NO:1, VH SEQ ID NO:2 | inhibited tumor growth | 24.0 | 0.47 | 0/8 | 0/8 | 57.7 | 35.0 | 0.61 | 0/8 | 0/8 | 70.3 | −2.2 | PFS [5]: 33 month; response rate [5]: 92%; NK cell activation [6]: activate NK cells by up-regulation of CD69 and granzyme B expression |
